Measurements published in patent US4851221A, “Liquid calcium supplementation from readily soluble mixtures of calcium compound and citric acid” (Mission Pharmacal Company, priority 1986, dated 1989).
Where a name gives a salt, the structure may show the parent alone.

Legend:
[1] = blood pressure in essential hypertension; format: in vivo; conditions: 800 mg calcium/day
[2] = oral; comparable amount; cited from earlier work
[3] = indirect method of oral calcium loading: increment in urinary calcium; format: in vivo; conditions: second two hours after oral 500 mg calcium; 10 normal subjects; mean ± SD; ** p < 0.01 vs tricalcium dicitrate (pre-mixes 1.5 and 1.25)
Method: (§1) The pre-mixes yielded greater absorbability of calcium than tricalcium dicitrate. […] The calcium absorption was also measured more directly from the recovery of radiocalcium after taking labeled calcium preparations in 6 normal subjects.
This indirect measure of calcium absorption was greatest for the pre-mix with a calcium/citrate molar ratio of 1.25 than for other pre-mixes.

[4] = radiocalcium absorption (fecal recovery of radioactive calcium); format: in vivo; conditions: 6 normal subjects; oral radiocalcium-labeled; mean ± SD; * p < 0.05 vs tricalcium dicitrate (pre-mix 1.25)
Method: as §1

[5] = during treatment; cited from earlier work
[6] = in vivo; cited from earlier work
[7] = cited from earlier work
[8] = cited from earlier work; remark: listed apart in the source
[9] = patients with absorptive hypercalciuria; cited from earlier work

O=C(O)CC(O)(CC(=O)O)C(=O)O [Tricalcium Dicitrate, tricalcium dicitrate]
effect on blood pressure [1]: Neither calcium carbonate nor tricalcium dicitrate (800 mg calcium/day) was effective in lowering blood pressure
control of hyperphosphatemia (1.5-2.75 g calcium/day, preliminary data): satisfactory control of hyperphosphatemia could be achieved in the majority of patients
serum aluminum concentration after treatment (after 8 weeks of treatment, p< 0.05, 1.5-2.75 g calcium/day): 79 ng/mL
serum aluminum concentration before treatment (before treatment): 127 ng/mL
calcium absorbability versus calcium carbonate [2]: more calcium was absorbable from calcium citrate than from a comparable amount of calcium carbonate
Increment in Urinary Calcium [3]: 0.087 ± 0.087 mg calcium/100 ml glomerular f
Calcium Absorption [4]: 19.1 ± 6.9%
urinary citrate change [5]: Urinary citrate rose significantly during calcium citrate treatment

[OH][Al]([OH])[OH] [aluminum hydroxide]
aluminum accumulation / osteomalacia [6]: aluminum accumulation in the body causing a vitamin D resistant osteomalacia

O=C(O)O [calcium carbonate]
effect on blood pressure [1]: Neither calcium carbonate nor tricalcium dicitrate (800 mg calcium/day) was effective in lowering blood pressure
absorption of ingested phosphate ([7]; 3-20 g calcium/day, Clarkson et al.): prevent the absorption of ingested phosphate
prevention of vertebral bone loss ([8]; Christiansen et al., postmenopausal women): ineffective in preventing vertebral bone loss
urinary citrate change [5]: not during calcium carbonate therapy

O=C(O)CC(O)(CC(=O)O)C(=O)O [calcium citrate]
serum phosphate concentration ([7]; 2 g calcium/day, patients with renal failure, McDonald et al.): effective in restoring normal serum phosphate concentration

O=C(O)[C@H](O)[C@@H](O)[C@H](O)[C@H](O)CO [calcium gluconate]
urinary calcium / activity product ratio (calcium oxalate saturation) [9]: increased urinary calcium, leading to an increased activity product ratio

CC#C[C@]1(O)CC[C@H]2[C@@H]3CCc4cc(O)ccc4[C@H]3CC[C@@]21C [estrogen]
prevention of further bone losses ([8]; Recker et al., osteoporosis prone postmenopausal women): may be prevented by estrogen treatment
